Experimental data taken from patent US20050208528A1, “Enhancement of the stability of oligonucleotides comprising phosphorothioate linkages by addition of water-soluble antioxidants” (ISIS Pharmaceuticals, Inc., priority 2001, published 2005).
Structures can show the parent of a compound that is named as a salt. Where two headings read alike, the source gives them in different places. In the oligonucleotide strings, read from the 5' end, every base follows the letter of its sugar. An asterisk marks phosphorothioate; unmarked linkages are phosphodiester. Other units and linkages are bracketed, terminal groups are in braces. A string of capitals states the bases alone. d = 2'-deoxy (DNA)

Assays:
ISIS 2302 [1] = test: Long-term protection of creams by antioxidants, 40° C. for 1 month; format: physicochemical; set-up: full PS-content: unit: %; conditions: for full PS-content: cream, 0.03% ISIS 2302, 40° C. 1 month, LC/MS or SAX, no antioxidants 45.1, no excipients 91.3; for Protection against desulfurization (in words): bi-phasic cream formulation
Description: (§1) A cream formulation was prepared containing 5.0 g BRIJ 58 (polyoxyethylene[20]cetyl ether), 0.03% ISIS 2302 and different concentrations of phenolic antioxidants.

[2] = Crohn's disease, rheumatoid arthritis, psoriasis, ulcerative colitis, kidney transplant rejection models; cited from earlier work
ISIS 2302 [3] = test: Desulfurization in bi-phasic cream formulation with water-soluble and oil-soluble antioxidants, 40° C. for 6 days; format: physicochemical; conditions: for Full PS content (%): cream, 0.03% ISIS 2302, 40° C. 6 days, no additive 84.7
Description: The cream was heated at 40° C. for 6 days and the oligonucleotide was isolated by ethanol precipitation and analyzed for full PS content by SAX chromatography.

HLA-A and HLA-B = conditions: versus HLA-A and HLA-B; cited from earlier work
ICAM-1 [4] = conditions: cited from earlier work
C8161 cells = conditions: experimental metastasis assay, cited from earlier work
ISIS 2302 [5] = test: Desulfurization in bi-phasic cream formulation with oil-soluble antioxidants, 40° C. for 2 days; format: physicochemical; conditions: for Full PS content (%): 0.03% ISIS 2302, 0 mg gives 83.9; for Full PS content (%) / Protection of phosphorothioate oligonucleotides against desulfurization (in words): 40° C. 2 days; for Protection of phosphorothioate oligonucleotides against desulfurization (in words): biphasic cream
Description: as §1

ICAM-1 [6] = conditions: C8161 human melanoma cells; cited from earlier work
[7] = cited from earlier work
[8] = tested on: phosphorothioate oligonucleotide (ISIS-2302); test: Desulfurization of phosphorothioate oligonucleotide in mono-phasic system with oil-soluble antioxidants (SAX chromatography); format: physicochemical; conditions: for Full PS content (area-% SAX): 0.5 g PEG-40-monostearate, 1.5 ml phosphate buffer pH 7.0, 1.5 mg ISIS-2302, 65° C. 20 hours, no antioxidants 51.0
Description: Polyethyleneglycol-40-monostearate (0.5 g), a water-soluble excipient which forms peroxides in the absence of antioxidants, was heated at 65° C. for 20 hours with 1.5 ml phosphate buffer, pH 7.0 and 1.5 mg phosphorothioate oligonucleotide (ISIS-2302) in the absence or presence of various oil-soluble antioxidants. Oligonucleotides were isolated by ethanol precipitation and phosphorothioate content was determined by strong anion exchange (SAX) chromatography.

[9] = cream with 0.03% ISIS 2302, before heating
[10] = 5 mg antioxidant in 100 g cream
[11] = 10 mg antioxidant in 100 g cream
[12] = 25 mg antioxidant in 100 g cream
[13] = 50 mg antioxidant in 100 g cream
[14] = 75 mg antioxidant in 100 g cream
[15] = 100 mg antioxidant in 100 g cream

N[C@@H](CCC(=O)N[C@@H](CS)C(=O)NCC(=O)O)C(=O)O [Glutathione]
full PS-content (ISIS 2302 [1]; additive 0.01%): 9.6
full PS-content (ISIS 2302 [1]; additive 0.05%): 49.4
full PS-content (ISIS 2302 [1]; additive 0.2%): 50.9
full PS-content (ISIS 2302 [1]; additive 0.8%): 80.1
Protection against desulfurization (in words) (ISIS 2302 [1]): inhibited desulfurization

ISIS 2302: 2′-deoxyoligonucleotide, phosphorothioate backbone, 5′-GCC-CAA-GCT-GGC-ATC-CGT-CA-3′ (SEQ ID NO:1), targeted to 3′-UTR of human ICAM-1 gene (antisense GCCCAAGCTGGCATCCGTCA; DNA, all phosphorothioate, methylation of C not given here)
Anti-inflammatory effects in animal testing [2]: strong anti-inflammatory effects
PS content of the cream prior to heating (ISIS 2302 [3]; [9]): about 95%
Specificity for target ICAM-1 over other potential nucleic acid targets (HLA-A and HLA-B): demonstrated specificity for its target ICAM-1
ICAM-1 expression (ICAM-1 [4]; human epidermal carcinoma cells (A431)): inhibit ICAM-1 expression
ICAM-1 expression (ICAM-1 [4]; human keratinocytes): inhibit ICAM-1 expression
ICAM-1 expression (ICAM-1 [4]; human lung carcinoma cells (A549)): inhibit ICAM-1 expression
ICAM-1 expression (ICAM-1 [4]; human umbilical vein cells): inhibit ICAM-1 expression
Enhanced metastatic ability of C8161 cells resulting from TNF-α treatment (C8161 cells; TNF-α treated cells): eliminated the enhanced metastatic ability
Metastatic potential of C8161 cells (C8161 cells): decreased the metastatic potential
phosphorothioate content of the cream prior to heating (ISIS 2302 [5]; [9]): 95%
ICAM-1 expression (mRNA levels, northern blot) (ICAM-1 [6]): markedly reduced ICAM-1 expression
Activity against Crohn's disease ([7]; humans): activity against Crohn's disease
Safety in humans ([7]; in vivo): good safety
Steroid-sparing effect ([7]; treated human subjects, five months post-treatment weaned from steroids and in remission): statistically significant steroid-sparing effect

Cc1cccc(C(C)(C)C)c1O [2-t-butyl-6-methylphenol]
Full PS content (%) (ISIS 2302 [3]; additive 11.0 mg): 79.0%
Full PS content (area-% SAX) ([8]; 5 mg additive): 93.4 area-% SAX

ISIS 1939: 2′-deoxyoligonucleotide, phosphorothioate backbone, 5′-CCC-CCA-CCA-CTT-CCC-CTC-TC-3′ (SEQ ID NO:2), targeted to 3′-UTR of human ICAM-1 gene (antisense dC*dC*dC*dC*dC*dA*dC*dC*dA*dC*dT*dT*dC*dC*dC*dC*dT*dC*dT*dC)
ICAM-1 expression (mRNA levels, northern blot) (ICAM-1 [6]): markedly reduced ICAM-1 expression

O=S(=O)([O-])c1ccc2[nH]c(S)nc2c1.[Na+] [2-MBSA]
Full PS content (%) (ISIS 2302 [3]; additive 4.8 mg): 95.5%
full PS-content (ISIS 2302 [1]; additive 0.01%): 78.7
full PS-content (ISIS 2302 [1]; additive 0.05%): 95.2
full PS-content (ISIS 2302 [1]; additive 0.2%): 96.1
full PS-content (ISIS 2302 [1]; additive 0.8%): 95.7
Protection against desulfurization (in words) (ISIS 2302 [1]): inhibited desulfurization

Cc1cc(C(C)(C)C)c(O)c(C(C)(C)C)c1 [BHT, butylated hydroxytoluene]
Full PS content (%) (ISIS 2302 [3]; additive 5.2 mg): 77.3%
Full PS content (%) (ISIS 2302 [5]; [10]): 85.8%
Full PS content (%) (ISIS 2302 [5]; [11]): 82.1%
Full PS content (%) (ISIS 2302 [5]; [12]): 80.1%
Full PS content (%) (ISIS 2302 [5]; [13]): 85.4%
Full PS content (%) (ISIS 2302 [5]; [14]): 84.4%
Full PS content (%) (ISIS 2302 [5]; [15]): 85.2%
Protection of phosphorothioate oligonucleotides against desulfurization (in words) (ISIS 2302 [5]): do not provide protection

O=C(O)CCCCC1CCSS1 (stereo not drawn) [α-lipoic acid]
full PS-content (ISIS 2302 [1]; additive 0.02%): 80.2
full PS-content (ISIS 2302 [1]; additive 0.1%): 84.3
full PS-content (ISIS 2302 [1]; additive 0.45%): 84.7
full PS-content (ISIS 2302 [1]; additive 1.6%): 87.6
Protection against desulfurization (in words) (ISIS 2302 [1]): inhibited desulfurization

Vitamin E
Full PS content (%) (ISIS 2302 [3]; additive 7.4 mg): 83.7%
Protection from desulfurization (in words) (ISIS 2302 [3]; bi-phasic cream formulation): ineffective
Full PS content (%) (ISIS 2302 [5]; [10]): 84.0%
Full PS content (%) (ISIS 2302 [5]; [11]): 81.9%
Full PS content (%) (ISIS 2302 [5]; [12]): 80.6%
Full PS content (%) (ISIS 2302 [5]; [13]): 78.6%
Full PS content (%) (ISIS 2302 [5]; [14]): 78.7%
Full PS content (%) (ISIS 2302 [5]; [15]): 76.3%
Protection of phosphorothioate oligonucleotides against desulfurization (in words) (ISIS 2302 [5]): do not provide protection
Full PS content (area-% SAX) ([8]; 15 mg additive): 89.7 area-% SAX
Protection of phosphorothioate oligonucleotide against desulfurization (in words) ([8]; mono-phasic system): inhibit desulfurization

Vitamin E-TPGS
Full PS content (%) (ISIS 2302 [3]; additive 7.5 mg): 84.8%

N[C@@H](CS)C(=O)O [L-cysteine]
Full PS content (%) (ISIS 2302 [3]; additive 0.05 mg): 89.6%
Full PS content (%) (ISIS 2302 [3]; additive 0.2 mg): 91.8%
Full PS content (%) (ISIS 2302 [3]; additive 0.4 mg): 93.6%
Full PS content (%) (ISIS 2302 [3]; additive 1.0 mg): 93.7%
Full PS content (%) (ISIS 2302 [3]; additive 6.1 mg): 93.0%
Full PS content (%) (ISIS 2302 [3]; additive 52.2 mg): 94.5%
full PS-content (ISIS 2302 [1]; additive 0.01%): 28.4
full PS-content (ISIS 2302 [1]; additive 0.05%): 30.8
full PS-content (ISIS 2302 [1]; additive 0.2%): 67.3
full PS-content (ISIS 2302 [1]; additive 0.8%): 81.9
Protection against desulfurization (in words) (ISIS 2302 [1]): inhibited desulfurization

O=S(=O)(O)CCS [2-MESA, Na salt, 2-mercaptoethanesulfonic acid]
full PS-content (ISIS 2302 [1]; additive 0.01%): 61.2
full PS-content (ISIS 2302 [1]; additive 0.05%): 71.6
full PS-content (ISIS 2302 [1]; additive 0.2%): 72.5
full PS-content (ISIS 2302 [1]; additive 0.8%): 86.7
